Results: paper PMC9697131, “Agomelatine, Ketamine and Vortioxetine Attenuate Energy Cell Metabolism—In Vitro Study” (International Journal of Molecular Sciences, 2022)
pIC50: −log10 of the molar value. “And” between values parts separate entries of the source, which are not always exact repeats. Equal values may be shown once. Read-outs that look alike come from different tables or passages of the source.

Columns and labels:
[1] = tested on: complex I (NADH dehydrogenase); assay: Complex I (NADH dehydrogenase) activity, spectrophotometric; type: biochemical; conditions: 100 μM drug, pig brain mitochondria, mean ± SD
Protocol: (§1) Pig brains were obtained from a slaughterhouse. Mitochondrial fraction isolation and purification from brain cortex were performed as previously described. Briefly, grey matter from pig brains was homogenized and crude mitochondrial fraction was isolated and then centrifuged on the sucrose gradient to obtain purified mitochondrial fraction. The freshly purified mitochondria were kept on ice until the assays were performed and were used for measurements of the mitochondrial oxygen consumption rate, measurements of ATP and ROS formation. Frozen mitochondria (stored at −70 °C) were used for the following enzyme activity measurements: ETC complexes, citrate synthase (CS) and malate dehydrogenase (MDH) activity.
Ultrasonication and incubation of mitochondria with the tested drugs for 30 min at 30 °C was performed before measurement with a corresponding drug-free control (DMSO) for every measurement. Mitochondrial enzymes activities were determined spectrophotometrically as absorbance using a GENESYS 180 UV-Vis Spectrophotometer (Thermo Fisher Scientific, Waltham, MA, USA).
The reaction mixture consisted of KH2PO4, MgCl2 and KCN and the reaction was started by adding decylubiquinone and NADH. The rotenone-sensitive NADH oxidation reaction was measured at 340 nm for 5 min. The final protein concentration was 150 µg/mL and final drugs concentrations 2.5, 5, 10, 50 and 100 µM. Drug-free control (DMSO) was used as a control for each measurement.

[2] = tested on: complex I-linked respiration, pig brain mitochondria; assay: Complex I-linked mitochondrial respiration, high-resolution respirometry; type: biochemical; conditions: for effect on complex I-linked respiration (in words): titration 0.125–100 µM
Protocol: as §1
The mitochondrial oxygen consumption rate was measured by high-resolution respirometry using Oxygraph-2k (Oroboros Instruments Corp, Innsbruck, Austria). The final protein concentration was 0.05–0.14 mg/mL and the reaction mixture consisted of 2 mM malate, 5 mM pyruvate, 1.25 mM ADP and […] for complex I-linked respiration; 1.25 mM ADP, 0.75 mM MgCl2, 1 µM rotenone and 10 mM succinate for complex II-linked respiration. The following […] simultaneous measurements were assessed: a titration with the drug to the final drug concentrations of 0.125–100 µM in one chamber and a titration with a drug-free control (DMSO) in the second oxygraph chamber.
The respiration rate was expressed as pmol O2 consumed/second/mg of a protein.
(§2) The inhibition of respiration rate and MAO activity were analyzed by A four-parameter logistic regression with Prism software (GraphPad Software, San Diego, CA, USA) was used to analyze the respiratory rate inhibition and activity of MAO. […] The IC50 represents the drug concentration required to inhibit the difference between the baseline and the residual value of the mitochondrial oxygen flux or MAO activity by 50%.

[3] = tested on: complex I-linked ATP content, pig brain mitochondria; assay: Complex I-linked ATP content, bioluminescence; type: biochemical; conditions: for complex I-linked ATP content (relative to control = 100%): mean ± SD
Protocol: as §1
The following protocol has been modified and optimized. An ATP Bioluminescence Assay Kit CLS II was used to measure ATP content and kinetics. The luminescence was measured using FluoroMax-3 (Jobin Yvon, Edison, NJ, USA) at 562 nm. Standard curve for ATP determination was prepared from ATP standard in the range from 0 to 600 nM. Tested substances were used at final concentrations 10, 50 and 100 µM, with drug-free control (DMSO) for each measurement and the final protein concentration was 50 µg/mL.
Mitochondria were incubated for 30 min on ice with the MiR05 buffer, tested substances and mitochondria. Consequently, the substrate mix was added, consisting of 5 mM malate and 5 mM pyruvate (for complex I) or 5 mM succinate and 1 μM rotenone (for complex II), 60 μM ADP and 0.75 mM MgCl2·6H2O and incubated for 30 min in 30 °C. Reaction was stopped by heating vials at 100 °C for 2 min. Background luminescence was measured. In total, 230 µL of luciferase reagent was added and total ATP° content for complex I and complex II+III was determined by measuring the luminescence for 1 min. Drug-free control (DMSO) was part of each measurement.

MAO-B = molecular target: T1, MAO-B (Sus scrofa, UniProt Q6PLK3); assay: MAO-B activity, radiolabeled [14C]PEA substrate; type: biochemical, pig; conditions: for MAO-B Inhibition (type): 0.1–300 µM; for MAO-B Hillslope / MAO-B Residual Activity: mean
T1 construct: from tissue; host or cells: pig brain mitochondria
T1 sequence (Q6PLK3 1-520): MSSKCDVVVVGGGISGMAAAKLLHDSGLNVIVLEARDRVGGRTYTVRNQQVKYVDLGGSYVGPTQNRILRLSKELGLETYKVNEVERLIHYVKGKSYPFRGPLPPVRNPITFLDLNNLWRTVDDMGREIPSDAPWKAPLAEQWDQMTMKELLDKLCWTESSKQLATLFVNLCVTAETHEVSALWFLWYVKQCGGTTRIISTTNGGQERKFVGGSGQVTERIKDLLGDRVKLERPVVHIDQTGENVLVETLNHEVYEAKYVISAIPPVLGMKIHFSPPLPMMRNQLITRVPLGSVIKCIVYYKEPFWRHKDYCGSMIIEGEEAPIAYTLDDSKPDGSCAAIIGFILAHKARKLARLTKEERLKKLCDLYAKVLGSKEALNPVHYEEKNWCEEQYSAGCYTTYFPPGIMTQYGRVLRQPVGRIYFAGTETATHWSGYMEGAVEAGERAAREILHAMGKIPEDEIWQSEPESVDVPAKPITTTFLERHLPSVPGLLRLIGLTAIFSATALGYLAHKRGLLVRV
Protocol: as §1
Mitochondria in KH buffer at final concentration of 800 µg/mL were preincubated with the tested drugs in a final concentration range of 0.1–300 µM for 60 min at 37 °C. For each measurement, there was a corresponding drug-free control (DMSO). Radiolabeled substrates ([^3H]serotonin for MAO-A and [^14C]PEA for MAO-B) were added to initiate the reaction. The reaction was carried out at 37 °C for 20 min for MAO-A and for 1 min for MAO-B, and the reaction was stopped by hydrochloric acid. The radioactivity of the organic phases of the extracts were measured by liquid scintillation counting (LS 6000IC, Beckman Instruments, Inc., Fullerton, CA, USA).
as §2

COc1ccc2cccc(CCNC(C)=O)c2c1 [agomelatine]
complex I activity (relative to control = 100%) [1]: 73.7 ± 5.1%
effect on complex I-linked respiration (in words) [2]: did not affect complex I-linked respiration at all
complex I-linked ATP content (relative to control = 100%) ([3]; 10 μM drug): 106.4 ± 4.0%
MAO-B Inhibition (type) (MAO-B): none
MAO-B Inhibition (type) (MAO-B; listed as AGO): did not affect its activity at all

CNC1(c2ccccc2Cl)CCCCC1=O (stereo not shown) [ketamine]
complex I activity (relative to control = 100%) [1]: 91.2 ± 6.6%
effect on complex I-linked respiration (in words) [2]: inhibited complex I-linked respiration very weakly
effect on complex I-linked ATP content (in words) ([3]; 10, 50 and 100 µM): no significant effect
pIC50 (MAO-B): 4.29
MAO-B Inhibition (type) (MAO-B): weak
MAO-B Hillslope (MAO-B; 4 measurements): 2.12
MAO-B Residual Activity (MAO-B; 4 measurements): 0.707 rel.u.

Cc1ccc(Sc2ccccc2N2CCNCC2)c(C)c1 [vortioxetine]
complex I activity (relative to control = 100%) ([1]; listed as VOR): 5.5 ± 1.8% and 5.5%
complex I-linked respiration rate (relative to control = 100%) ([2]; 50 μM drug, mean ± SD): 22.5 ± 7.1%
residual activity of complex I-linked respiration ([2]; four-parameter logistic fit, mean ± SEM): 4.7%
pIC50 ([2]; four-parameter logistic fit, mean ± SEM, listed as VOR): 4.98
effect on complex I-linked respiration (in words) [2]: full inhibitor of complex I-linked respiration
complex I-linked ATP content (relative to control = 100%) ([3]; 100 μM drug): 119.0 ± 10.6%
MAO-B Inhibition (type) (MAO-B): partial
pIC50 (MAO-B; mean ± SEM, 4 measurements, read-out: MAO-B IC50): 4.74
MAO-B Hillslope (MAO-B; 4 measurements): 2.58
MAO-B Residual Activity (MAO-B; 4 measurements): 0.229 rel.u.
